The text below walks through data of patent US10556907B2 (AbbVie Inc., priority 2015, dated 2020).

Assay type in all cases: cell-based
For assay [1], the target named is T1, human EDG8 (S1PR5) receptor (Homo sapiens, UniProt Q9H228).
T1 construct: expressed in transfected cells; host or cells: CHO (clone CHO-A21-EDG8 #12)
Nature of the assay: Method 2: Aequorin assay, cell clone CHO-A21-EDG8 #12. Particulars: agonist potency, determined with method 2 (symbols E-G); read-out: S1P5 EC50 range. The method, then:
(§1) Agonistic activity was measured using two different methods, described below.
(§2) Genetically Engineered Cells
(§3) Cell clone CHO-A21-Edg1 #17 carries the transgenes human EDG1 (S1PR1) receptor (Accession number NP_001391.2), mitochondrially targeted Aequorin (active part corresponds to accession number 1SL8_A) and chimaeric Gaqi5=Gaq modified with the 5 C-terminal amino-acids replaced with those of the Gai protein (DCGLF). CHO-A2-S1P3 Mix is a cell pool ectopically expressing human EDG3 (S1PR3) receptor (Accession number NP_005217.2) mitochondrially targeted Aequorin (active part has a sequence similar to accession number AY601106.1) and GNA16 (Accession number NP_002059.3). Cell clone CHO-A21-EDG8 #12 carries the transgenes human EDG8 (S1PR5) receptor (Accession number NP_110387.1), mitochondrially expressed Aequorin (active part corresponds to accession number 1SL8_A) and chimaeric Gaqi5 (Gaq modified to present the 5 last amino-acids of the Gai protein “DCGLF”; see above). Cells are grown to mid-log phase in culture medium (HAM's F12, 10% FBS, 100 IU/mL penicillin, 100 μg/mL streptomycin, 250 μg/mL Zeocin, 400 μg/mL G418). 18 hours prior to frozen cells preparation, the medium is changed to remove the antibiotics.
(§4) 18 hours prior to the test, vials of frozen cells are quickly thawed in a 37° C. water bath, cells are recovered by centrifugation and resuspended in assay buffer (DMEM/HAM's F12 with HEPES, without phenol red+0.1% fatty acid-free BSA). Cells are gently agitated in suspension overnight at RT in presence of 5 μM of Coelenterazine h (Molecular Probes). On the day of the test, cells are diluted to their final working concentrations in assay buffer and agitated in suspension for 1 h at RT. Cells are then placed in the luminescence reader (Hamamatsu Functional Drug Screening System 6000, FDSS6000). During cells incubation, compounds are prepared in 100% DMSO, and subsequently diluted in assay buffer. Compounds are then dispensed in the assay plate (black, clear-bottom, 384-well plate). After binding of agonists to the human S1P receptor the intracellular calcium concentration increases and binding of calcium to the Aequorin/Coelenterazine complex leads to an oxidation reaction of coelenterazine, which results in the production of […], coelenteramide, CO2 and light (Dmax 469 nm). The luminescent response is dependent on the agonist concentration. For agonist testing, 30 μL of cell suspension are injected on 30 μL of test compound or reference agonist in the assay plate. The resulting emission of light is recorded for 90 seconds using the FDSS6000. Dose response curves with the reference compounds are performed before testing the compounds. S1P is the reference agonist and JTE-013 the reference antagonist for S1P2. […]
(§5) Luminescence data are integrated over the reading interval for agonist and antagonist modes. To standardize the emission of recorded light (determination of the “100% signal”) across plates and across different experiments, some of the wells contain 100 μM digitonin or a saturating concentration of ATP (20 μM). Plates also contain the reference agonist at a concentration equivalent to the EC80 obtained during the test validation and the EC100. Dose-response data from test compounds were analyzed with XLfit (IDBS) software using nonlinear regression applied to a sigmoidal dose-response model and the following equation: • XL Fit fit Model 203: 4 Parameter Logistic Model • A: Bottom • B: TOP • C: LogEC50 • D: Hill fit=(A+((B−A)/(1+(((10^C)/x)^D)))) inv=((10^C)/((((B−A)/(y−A))−1)^(1/D))) res=(y−fit)

The target in assay [2] is T2, human EDG1 (S1PR1) receptor (Homo sapiens, UniProt P21453).
T2 construct: expressed in transfected cells; host or cells: CHO (clone CHO-A21-Edg1 #17)
Nature of the assay: Method 2: Aequorin assay, cell clone CHO-A21-Edg1 #17. The following applies: (2): determined with method 2; read-out: S1P1 EC50. The method, then:
as §1, §2, §3, §4, §5

For assay [3], the target named is T3, human EDG3 (S1PR3) receptor (Homo sapiens, UniProt Q99500).
T3 construct: expressed in transfected cells; host or cells: CHO (cell pool CHO-A2-S1P3 Mix)
Briefly: Method 2: Aequorin assay, cell pool CHO-A2-S1P3 Mix. The following applies: (2): determined with method 2. The method, then:
as §1, §2, §3, §4, §5

The structures appear in SMILES notation.

T2 sequence (P21453 whole entry): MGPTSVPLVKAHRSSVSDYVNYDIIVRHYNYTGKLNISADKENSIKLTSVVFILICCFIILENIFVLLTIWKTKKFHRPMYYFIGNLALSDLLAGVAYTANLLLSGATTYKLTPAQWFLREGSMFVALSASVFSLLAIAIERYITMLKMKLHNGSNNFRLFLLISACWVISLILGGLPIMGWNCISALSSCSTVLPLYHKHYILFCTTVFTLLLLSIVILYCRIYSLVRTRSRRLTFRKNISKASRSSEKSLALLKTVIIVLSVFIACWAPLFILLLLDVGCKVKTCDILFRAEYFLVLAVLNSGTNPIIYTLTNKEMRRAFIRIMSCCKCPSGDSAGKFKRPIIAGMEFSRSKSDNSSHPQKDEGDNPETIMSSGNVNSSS
T3 sequence (Q99500 whole entry): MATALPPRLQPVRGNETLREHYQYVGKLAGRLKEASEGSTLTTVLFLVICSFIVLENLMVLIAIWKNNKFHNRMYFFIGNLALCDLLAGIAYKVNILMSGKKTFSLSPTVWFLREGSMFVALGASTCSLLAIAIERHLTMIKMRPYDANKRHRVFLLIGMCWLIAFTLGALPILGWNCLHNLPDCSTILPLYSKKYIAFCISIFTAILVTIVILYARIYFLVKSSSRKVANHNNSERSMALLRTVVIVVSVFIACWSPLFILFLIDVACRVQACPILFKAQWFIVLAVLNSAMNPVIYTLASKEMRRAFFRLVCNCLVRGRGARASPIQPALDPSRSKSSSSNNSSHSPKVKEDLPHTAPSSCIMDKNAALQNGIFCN
T1 sequence (Q9H228 whole entry): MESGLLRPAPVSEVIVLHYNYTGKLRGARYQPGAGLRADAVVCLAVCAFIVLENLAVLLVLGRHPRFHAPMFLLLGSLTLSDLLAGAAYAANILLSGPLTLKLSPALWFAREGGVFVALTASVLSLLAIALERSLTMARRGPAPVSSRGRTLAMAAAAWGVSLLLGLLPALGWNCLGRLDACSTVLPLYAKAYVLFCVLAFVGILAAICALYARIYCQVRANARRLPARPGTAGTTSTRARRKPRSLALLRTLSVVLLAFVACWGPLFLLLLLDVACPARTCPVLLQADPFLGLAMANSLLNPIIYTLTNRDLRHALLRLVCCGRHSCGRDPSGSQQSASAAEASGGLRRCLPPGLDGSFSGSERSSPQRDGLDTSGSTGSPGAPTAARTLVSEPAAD

Usually EC50 stands for the concentration at which the effect is half-maximal. As to `O=C(O)CCN1CCc2nc(-c3ccc(OCc4ccccc4F)cc3)ccc2C1` [Compound 132, 3-(2-(4-((2-fluorobenzyl)oxy)phenyl)-7,8-dihydro-1,6-naphthyridin-6(5H)-yl)propanoic acid], the EC50 in assay [1] was below 100 nM; in assay [2], above 1000 nM; in assay [3], above 1000 nM.

For the molecule `O=C(O)CCN1CCc2nc(-c3ccc(OCc4ccccc4)c(F)c3)ccc2C1` [Compound 137, 3-(2-(4-(benzyloxy)-3-fluorophenyl)-7,8-dihydro-1,6-naphthyridin-6(5H)-yl)propanoic acid], the figures for the EC50 in assay [1], in assay [2] and in assay [3] were 100 to 1000 nM, above 1000 nM and above 1000 nM, respectively.

`CC(CN1CCc2nc(-c3ccc(OCc4c(Cl)cccc4Cl)cc3)ncc2C1)C(=O)O` (stereo not drawn) [Compound 7, 3-(2-(4-(2,6-dichlorobenzyloxy)phenyl)-7,8-dihydropyrido[4,3-d]pyrimidin-6(5H)-yl)-2-methylpropanoic acid]: the half-maximal effective concentration (EC50) in assay [1] is 100 to 1000 nM; in assay [2], above 1000 nM; in assay [3] it was above 1000 nM.

On to `O=C(O)CCN1CCc2cc(-c3ccc(OCc4ccccc4)cc3)nnc2C1` [Compound 207, 3-(3-(4-(benzyloxy)phenyl)-5,6-dihydropyrido[3,4-c]pyridazin-7(8H)-yl)propanoic acid], for which the results for the EC50 in assay [1], in assay [2] and in assay [3] were 1000 to 10000 nM, above 1000 nM and above 1000 nM, respectively.

As to `O=C(O)CCN1CCc2nc(-c3ccc(OCc4ccccc4)cc3C(F)(F)F)ccc2C1` [Compound 136, 3-(2-(4-(benzyloxy)-2-trifluoromethylphenyl)-7,8-dihydro-1,6-naphthyridin-6(5H)-yl)propanoic acid], the EC50 in assay [1] was 1000 to 10000 nM; in assay [2], above 1000 nM; in assay [3], above 1000 nM.

Turning to `Cc1cc(-c2ccc3c(n2)CCN(CCC(=O)O)C3)ccc1OCc1ccccc1` [Compound 139, 3-(2-(4-(benzyloxy)-3-methylphenyl)-7,8-dihydro-1,6-naphthyridin-6(5H)-yl)propanoic acid], the EC50 was 100 to 1000 nM in assay [1], above 1000 nM in assay [2] and above 1000 nM in assay [3].

On to `O=C(O)CCN1CCc2nc(-c3ccc(OCc4ccccc4)c(C(F)(F)F)c3)ccc2C1` [Compound 143, 3-(2-(4-(benzyloxy)-3-trifluoromethylphenyl)-7,8-dihydro-1,6-naphthyridin-6(5H)-yl)propanoic acid], for which the EC50 in assay [1] is 100 to 1000 nM; in assay [2], above 1000 nM; in assay [3] it was above 1000 nM.

With `CC(CN1CCc2cc(-c3ccc(OCc4ccccc4)cc3)nnc2C1)C(=O)O` (stereo not drawn) [Compound 206, 3-(3-(4-(benzyloxy)phenyl)-5,6-dihydropyrido[3,4-c]pyridazin-7(8H)-yl)-2-methylpropanoic acid], the results for the EC50 in assay [1], in assay [2] and in assay [3] were 100 to 1000 nM, above 1000 nM and above 1000 nM, respectively.

For the molecule `CC(CN1CCc2nc(-c3ccc(OCc4cc(F)cc(F)c4)cc3)ncc2C1)C(=O)O` (stereo not drawn) [Compound 9, 3-(2-(4-((3,5-difluorobenzyl)oxy)phenyl)-7,8-dihydropyrido[4,3-d]pyrimidin-6(5H)-yl)-2-methylpropanoic acid], the EC50 in assay [1] is 100 to 1000 nM; in assay [2] it was above 1000 nM; in assay [3], above 1000 nM.

Turning to `CC(CN1CCc2nc(-c3ccc(OCc4ccccc4)cc3)ncc2C1)C(=O)O` (stereo not drawn) [Compound 6, 3-(2-(4-(benzyloxy)phenyl)-7,8-dihydropyrido[4,3-d]pyrimidin-6(5H)-yl)-2-methylpropanoic acid], the EC50 in assay [1] was 100 to 1000 nM; in assay [2] it was above 1000 nM; in assay [3] it was above 1000 nM.

As for `Cc1cc(OCc2ccccc2)ccc1-c1ccc2c(n1)CCN(CCC(=O)O)C2` [Compound 135, 3-(2-(4-(benzyloxy)-2-methylphenyl)-7,8-dihydro-1,6-naphthyridin-6(5H)-yl)propanoic acid], the EC50 in assay [1] was 1000 to 10000 nM; in assay [2] it was above 1000 nM; in assay [3], above 1000 nM.

As to `O=C(O)CCN1CCc2nc(-c3ccc(OCc4ccccc4)cc3F)ccc2C1` [Compound 134, 3-(2-(4-(benzyloxy)-2-fluorophenyl)-7,8-dihydro-1,6-naphthyridin-6(5H)-yl)propanoic acid], the figures for the EC50 in assay [1], in assay [2] and in assay [3] were below 100 nM, above 1000 nM and above 1000 nM, respectively.

As for `O=C(O)CCN1CCc2nc(-c3ccc(OCc4ccc(F)cc4)c(Cl)c3)ccc2C1` [Compound 140, 3-(2-(3-chloro-4-((4-fluorobenzyl)oxy)phenyl)-7,8-dihydro-1,6-naphthyridin-6(5H)-yl)propanoic acid], the EC50 in assay [1] is 100 to 1000 nM; in assay [2], above 1000 nM; in assay [3], above 1000 nM.

As for `O=C(O)CCN1Cc2ccc(-c3ccc(OCc4ccccc4)cc3)nc2C1` [Compound 202, 3-(2-(4-(benzyloxy)phenyl)-5H-pyrrolo[3,4-b]pyridin-6(7H)-yl)propanoic acid], the EC50 was 1000 to 10000 nM in assay [1], above 1000 nM in assay [2] and above 1000 nM in assay [3].

As for `O=C(O)CCN1CCc2nc(-c3ccc(OCc4ccccc4F)c(Cl)c3)ccc2C1` [Compound 141], the EC50 is 100 to 1000 nM in assay [1], above 1000 nM in assay [2] and above 1000 nM in assay [3].

Take `O=C(O)CCN1CCc2nc(-c3ccc(OCc4c(Cl)cccc4Cl)cc3)ccc2C1` [Compound 130, 3-(2-(4-((2,6-dichlorobenzyl)oxy)phenyl)-7,8-dihydro-1,6-naphthyridin-6(5H)-yl)propanoic acid]: the EC50 in assay [1] was 100 to 1000 nM; in assay [2], above 1000 nM; in assay [3] it was above 1000 nM.

On to `CC(CN1CCc2nc(-c3ccc(OCc4ccccc4)cc3)ccc2C1)C(=O)O` (stereo not drawn) [Compound 101, 3-(2-(4-(benzyloxy)phenyl)-7,8-dihydro-1,6-naphthyridin-6(5H)-yl)-2-methylpropanoic acid], for which the EC50 was 100 to 1000 nM in assay [1], above 1000 nM in assay [2] and above 1000 nM in assay [3].

For the molecule `O=C(O)CCN1CCc2nc(-c3ccc(OCc4cccc(F)c4F)cc3)ncc2C1` [Compound 69, 3-(2-(4-((2,3-difluorobenzyl)oxy)phenyl)-7,8-dihydropyrido[4,3-d]pyrimidin-6(5H)-yl)propanoic acid], the EC50 in assay [1] was 1000 to 10000 nM; in assay [2], above 1000 nM; in assay [3] it was above 1000 nM.

Take `COc1cc(-c2ccc3c(n2)CCN(CCC(=O)O)C3)ccc1OCc1ccccc1` [Compound 142, 3-(2-(4-(benzyloxy)-3-methoxyphenyl)-7,8-dihydro-1,6-naphthyridin-6(5H)-yl)propanoic acid]: the EC50 in assay [1] is 1000 to 10000 nM; in assay [2], above 1000 nM; in assay [3], above 1000 nM.

Turning to `CC(CN1Cc2ccc(-c3ccc(OCc4ccccc4)cc3)nc2C1)C(=O)O` (stereo not drawn) [Compound 199, 3-(2-(4-(benzyloxy)phenyl)-5H-pyrrolo[3,4-b]pyridin-6(7H)-yl)-2-methylpropanoic acid], the EC50 is 1000 to 10000 nM in assay [1], above 1000 nM in assay [2] and above 1000 nM in assay [3].

Turning to `COc1cc(OCc2ccccc2)ccc1-c1ccc2c(n1)CCN(CCC(=O)O)C2` [Compound 138, 3-(2-(4-(benzyloxy)-2-methoxyphenyl)-7,8-dihydro-1,6-naphthyridin-6(5H)-yl)propanoic acid], the EC50 was 1000 to 10000 nM in assay [1], above 1000 nM in assay [2] and above 1000 nM in assay [3].
